Data set [1] addresses H1N9 Influenza Neuraminidase (Influenza A virus, UniProt P03472). In words: biochemical. More on the design: species or system influenza virus (H1N9 strain). The following applies: 10 min at 37° C.; read-out: Inhibition of H1N9 Influenza Neuraminidase IC50.

For four compounds, IC50 and melting point results are on record in patent publication US6410594B1, “Substituted cyclopentane compounds useful as neuraminidase inhibitors” (Biocryst Pharmaceuticals, Inc., priority 1996, dated 2002).

Chain of H1N9 Influenza Neuraminidase (P03472 83-470 limits assumed): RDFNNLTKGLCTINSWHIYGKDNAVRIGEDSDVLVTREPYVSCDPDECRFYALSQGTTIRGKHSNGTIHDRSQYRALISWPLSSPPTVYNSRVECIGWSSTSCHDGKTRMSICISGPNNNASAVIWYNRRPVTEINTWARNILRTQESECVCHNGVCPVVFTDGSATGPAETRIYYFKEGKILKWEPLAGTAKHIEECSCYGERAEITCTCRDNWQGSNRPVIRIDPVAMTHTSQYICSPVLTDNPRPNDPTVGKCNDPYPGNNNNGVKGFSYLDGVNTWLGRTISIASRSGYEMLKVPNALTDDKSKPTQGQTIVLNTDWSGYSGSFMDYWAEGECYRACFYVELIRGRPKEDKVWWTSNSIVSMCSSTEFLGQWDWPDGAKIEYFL

The compound `CC(=O)NC(CO)[C@H]1CC(C(=O)O)C[C@@H]1NC(=N)N` (single isomer, unassigned; isomer a) [Example 6, 4β-{[(Amino)(imino)methyl]amino}-3α-[(2-hydroxy-1-methylcarbonylamino)ethyl]-1-cyclo-pentancarboxylic acid (isomer A at C-6)] registered a melting point of 121 to 122 °C. In addition, the IC50 in data set [1] turned out to be 90 µM. The corresponding values for `CON(C)C(=O)C(NC(C)=O)[C@H]1C[C@](O)(C(=O)O)C[C@@H]1NC(=N)N` (stereo partly drawn) [Example 19, c-3-{[(Amino)(imino)methyl]amino}-t-1-hydroxy-t-4{(methylcarbonylamino){[(methyl)-(methoxy)amino]carbonyl}methyl}cyclopentan-r-carboxylic acid trifluoroacetic acid (1:1)] are 160 to 216 °C and 16 µM. Consider `CON(C)CCC(=O)C(NC(C)=O)[C@H]1CC(C(=O)O)C[C@@H]1NC(=N)N` (stereo partly drawn) [Example 20], for which the half-maximal inhibitory concentration (IC50) in data set [1] stood at 8 µM. The same measure, in the same setting: the same measure for `CCCN(CCC)C(=O)C(NC(C)=O)[C@H]1C[C@@](O)(C(=O)O)C[C@@H]1N=C(N)N` (stereo partly drawn) [Example 23, t-3-{[(Amino)(imino)methyl]amino}-c-4-[(di-n-propylaminocarbonyl)(methylcarbonylamino)-methyl]-t-hydroxycyclpentan-r-carboxylic acid trifluoroacetic acid (4:5)]: 0.47 µM.

In general, IC50 refers to the concentration that gives 50% inhibition. One may read the melting point as the temperature, or range, at which the solid turns liquid.
